pEC50, pIC50: −log10 of the molar value. In brackets after ≈: the same amount, converted by molar mass. Several values for one entry are separate records, joined by “and”; a condition that tells them apart may be missing. Equal values may be shown once.
Tests used:
Homo sapiens [1] = organism: Homo sapiens; test: Induction of CaCC (unknown origin) current potentiation at 10 uM relative to control
Trichophyton tonsurans [2] = test: Antifungal activity against Trichophyton tonsurans 700 assessed as fungal growth inhibition by spectrophotometry; type: functional
[3] = system: Trichophyton mentagrophytes; test: Antifungal activity against Trichophyton mentagrophytes 5432 assessed as fungal growth inhibition by spectrophotometry; type: functional
Epidermophyton floccosum [4] = test: Antifungal activity against Epidermophyton floccosum 6999 assessed as fungal growth inhibition by spectrophotometry; type: functional
[5] = system: Trichophyton mentagrophytes; test: Antifungal activity against Trichophyton mentagrophytes 5431 assessed as fungal growth inhibition by spectrophotometry; type: functional
Trichophyton rubrum = test: Antifungal activity against Trichophyton rubrum 6753 assessed as fungal growth inhibition by spectrophotometry; type: functional
Trichophyton tonsurans [6] = test: Antifungal activity against Trichophyton tonsurans 2822 assessed as fungal growth inhibition by spectrophotometry; type: functional
Homo sapiens [7] = organism: Homo sapiens; test: Inhibition of CaCC (unknown origin) current potentiation at 10 uM relative to control
Staphylococcus aureus [8] = test: Inhibition of EtBr efflux in Staphylococcus aureus SA-1 assessed as reduction in fluorescence intensity at 50 uM measured after 30 mins by spectrophotometry relative to control; type: functional; set-up: scale not given: the % may be the effect or the level left
Epidermophyton floccosum [9] = test: Antifungal activity against Epidermophyton floccosum assessed as fungal growth inhibition incubated for 7 days by spectrophotometry; type: functional; details: 168 h, time 7 day
Epidermophyton floccosum [10] = test: Antifungal activity against Epidermophyton floccosum 6754 assessed as fungal growth inhibition by spectrophotometry; type: functional
Candida parapsilosis = test: Antifungal activity against Candida parapsilosis ATCC 22019 assessed as fungal growth inhibition by spectrophotometry; type: functional; details: Lodderomyces parapsilosis
Leishmania amazonensis = test: Anti-promastigote activity against Leishmania amazonensis (IFLA/BR/67/PH8) assessed as promastigote growth inhibition incubated for 72 hrs by microscopic analysis; type: functional, organism-based; details: Leishmania amazonensis, IFLA/BR/67/PH8, 72 h
DNA = test: Binding affinity to parasitic DNA assessed as intrinsic binding constant by UV-visible absorption spectrophotometry; type: nucleic-acid assay
Staphylococcus coagulans = test: Antimicrobial activity against Staphylococcus coagulans assessed as microbial growth inhibition incubated for 24 hrs by disc diffusion assay; type: functional
Heyndrickxia coagulans = test: Antibacterial activity against Bacillus coagulans assessed as bacterial growth inhibition; type: functional
Enterococcus faecalis = test: Antibacterial activity against Enterococcus faecalis assessed as bacterial growth inhibition; type: functional
Perkinsus sp. = test: Antiprotozoal activity against Perkinsus sp. assessed as reduction in hypnospore viability at 500 uM measured after 48 hrs by microscopic analysis relative to control; type: functional
Candida tropicalis = test: Antifungal activity against Candida tropicalis URM 4262 assessed as fungal growth inhibition around drug-chitosan film at 1.28 mg/ml; type: functional; details: read-out: DIZ
K562 = test: Cytotoxicity against human K562 cells assessed as cell growth inhibition; type: functional, cell-based
Escherichia coli [11] = test: Antibacterial activity against Escherichia coli assessed as bacterial growth inhibition; type: functional
[12] = Cytotoxicity against human WI-38 cells assessed as cell growth inhibition incubated for 2 days by MTT assay; type: toxicity, cell-based
TGF-beta receptor type-1 = target: T1, TGF-beta receptor type-1 (Homo sapiens, UniProt P36897); test: Inhibition of human TGF-beta-R1 using TMB substrate incubated for 2.5 hrs by microplate reader analysis
T1 sequence (P36897 whole entry): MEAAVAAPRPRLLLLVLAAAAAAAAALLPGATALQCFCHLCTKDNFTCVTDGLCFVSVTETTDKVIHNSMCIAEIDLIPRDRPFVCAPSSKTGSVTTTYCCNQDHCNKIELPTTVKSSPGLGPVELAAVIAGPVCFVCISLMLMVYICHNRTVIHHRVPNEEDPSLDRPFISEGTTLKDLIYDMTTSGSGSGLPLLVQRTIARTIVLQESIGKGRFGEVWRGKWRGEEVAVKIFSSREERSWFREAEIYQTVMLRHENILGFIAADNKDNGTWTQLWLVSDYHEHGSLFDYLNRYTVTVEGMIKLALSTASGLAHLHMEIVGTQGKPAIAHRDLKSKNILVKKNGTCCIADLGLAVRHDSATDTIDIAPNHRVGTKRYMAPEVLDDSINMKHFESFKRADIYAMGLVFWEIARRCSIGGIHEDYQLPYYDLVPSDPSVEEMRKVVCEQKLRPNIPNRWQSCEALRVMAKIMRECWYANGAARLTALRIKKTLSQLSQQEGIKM

PC-3 = test: Cytotoxicity against human PC-3 cells assessed as cell growth inhibition incubated for 2 days by MTT assay; type: functional, cell-based; details: PC-3, 48 h
HepG2 = test: Cytotoxicity against human HepG2 cells assessed as cell growth inhibition incubated for 2 days by MTT assay; type: functional, cell-based; details: HepG2, 48 h
MCF7 = test: Cytotoxicity against human MCF7 cells assessed as cell growth inhibition incubated for 2 days by MTT assay; type: functional, cell-based; details: MCF7, 48 h
[13] = Inhibition of CaCC current potentiation in rat cerebellar Purkinje neurons by electrophysiological method
[14] = Inhibition of CaCC (unknown origin) current potentiation; set-up: species or system Homo sapiens
JAR = test: Cytotoxicity against human JAR cells assessed as cell growth inhibition at 10 uM relative to control; type: functional
Staphylococcus aureus [15] = test: Antibacterial activity against Staphylococcus aureus NCIM 2010 assessed as bacterial growth inhibition incubated for 8 hrs by absorbance based assay; type: functional
[16] = system: Mycobacterium tuberculosis; test: Antimycobacterial activity against Mycobacterium tuberculosis H37Ra incubated for 8 to 12 days by XTT reduction menadione assay; type: functional; details: time 8-12 day
Bacillus subtilis [17] = test: Antibacterial activity against Bacillus subtilis NCIM 2079 assessed as bacterial growth inhibition incubated for 8 hrs by absorbance based assay; type: functional
[18] = system: Mycobacterium tuberculosis; test: Antimycobacterial activity against Mycobacterium tuberculosis H37Ra assessed as bacterial growth inhibition incubated for 8 to 12 days by XTT reduction menadione assay; type: functional; details: time 8-12 day
Staphylococcus aureus [19] = test: Antibacterial activity against Staphylococcus aureus NCIM 2010 assessed as reduction in bacterial growth incubated for 8 hrs by absorbance based assay; type: functional, organism-based; details: NCIM 2010, 8 h
Bacillus subtilis [20] = test: Antibacterial activity against Bacillus subtilis NCIM 2079 assessed as reduction in bacterial growth incubated for 8 hrs by absorbance based assay; type: functional, organism-based; details: NCIM 2079, 8 h
Staphylococcus aureus [21] = test: Antibacterial activity against Staphylococcus aureus NCIM 2010 assessed as bacterial growth inhibition incubated for 8 hrs; type: functional, organism-based; details: NCIM 2010, 8 h
Escherichia coli [22] = test: Antibacterial activity against Escherichia coli NCIM 2688 assessed as bacterial growth inhibition incubated for 8 hrs by absorbance based assay; type: functional
Pseudomonas aeruginosa = test: Antibacterial activity against Pseudomonas aeruginosa NCIM 2036 assessed as bacterial growth inhibition incubated for 8 hrs by absorbance based assay; type: functional

COC(=O)c1c(NC(=O)Cn2cc(CNC34CC5CC(CC(C5)C3)C4)nn2)sc2c1CCC(C(C)(C)C)C2 (configuration not stated)
Activity (Homo sapiens [1]): 35%

COc1cc(/C=N/c2sccc2C#N)cc(OC)c1OC
MIC (Trichophyton tonsurans [2]): 128 µg/mL (≈ 423 µM)
MIC [3]: 128 µg/mL (≈ 423 µM)
MIC (Epidermophyton floccosum [4]): 256 µg/mL (≈ 847 µM)
MIC [5]: 256 µg/mL (≈ 847 µM)
MIC (Trichophyton rubrum): 64 µg/mL (≈ 212 µM)

N#Cc1ccsc1/N=C/c1c[nH]c2cccc([N+](=O)[O-])c12
MIC (Trichophyton tonsurans [2]): 128 µg/mL (≈ 432 µM)
MIC [3]: 512 µg/mL (≈ 1730 µM)
MIC (Epidermophyton floccosum [4]): 1020 µg/mL (≈ 3460 µM)
MIC (Trichophyton tonsurans [6]): 512 µg/mL (≈ 1730 µM)
MIC (Trichophyton rubrum): 64 µg/mL (≈ 216 µM)

C=CCNC(=S)Nc1sc2c(c1C(=O)OC)CCCC2
inhibition (Homo sapiens [7]): 40%

CCOC(=O)c1c(NC(=O)C(F)(F)F)sc2c1CCN(C(=O)CCCCCBr)C2
Activity (Staphylococcus aureus [8]): 125%

N#Cc1ccsc1/N=C/c1ccc(Br)cc1
MIC (Trichophyton tonsurans [2]): 64 µg/mL (≈ 220 µM)
MIC [3]: 1020 µg/mL (≈ 3520 µM)
MIC (Epidermophyton floccosum [9]): 101 µM (≈ 29.4 µg/mL)
MIC (Epidermophyton floccosum [10]): 512 µg/mL (≈ 1760 µM)
MIC (Epidermophyton floccosum [4]): 512 µg/mL (≈ 1760 µM)
MIC (Candida parapsilosis): 128 µg/mL (≈ 440 µM)
MIC (Trichophyton tonsurans [6]): 1020 µg/mL (≈ 3520 µM)
MIC [5]: 128 µg/mL (≈ 440 µM)
MIC (Trichophyton rubrum): 32 µg/mL (≈ 110 µM)

COc1ccc2nc3cc(Cl)ccc3c(Nc3sc4c(c3C#N)CCC4)c2c1
pEC50 (Leishmania amazonensis): 5.02
Kb (DNA): 1 10^4/M

N#Cc1c(NC(=O)c2cc(O)c(O)c(O)c2)sc2c1CCC2
MIC (Staphylococcus coagulans): 0.32 µM (≈ 0.101 µg/mL)
MIC (Heyndrickxia coagulans): 0.1 µg/mL (≈ 0.316 µM)
MIC (Enterococcus faecalis): 0.25 µg/mL (≈ 0.79 µM)

N#Cc1c(N)sc2c1CCCC2
Activity (Perkinsus sp.): 38%
zone of inhibition at 1280 µg/mL (Candida tropicalis): 1.5 mm

CCOC(=O)C1=C(Nc2cccc([N+](=O)[O-])c2)S/C(=C\c2ccc[nH]2)C1=O
pIC50 (K562): 4.06

CCCCCCCC(=O)N1CCc2c(sc(NC(=O)C(F)(F)F)c2C(=O)OCC)C1
Activity (Staphylococcus aureus [8]): 85%

Cc1sc(NC(=O)c2cc(O)c(O)c(O)c2)c(C#N)c1C
MIC (Staphylococcus coagulans): 0.49 µM (≈ 0.149 µg/mL)
MIC (Heyndrickxia coagulans): 0.15 µg/mL (≈ 0.493 µM)
MIC (Enterococcus faecalis): 0.25 µg/mL (≈ 0.821 µM)

N#Cc1c(NC(=O)c2cc(O)c(O)c(O)c2)sc2c1CCCC2
MIC (Staphylococcus coagulans): 0.45 µM (≈ 0.149 µg/mL)
MIC (Heyndrickxia coagulans): 0.15 µg/mL (≈ 0.454 µM)
MIC (Enterococcus faecalis): 0.17 µg/mL (≈ 0.515 µM)

O=C(N[C@H](CO)[C@H](O)c1ccc([N+](=O)[O-])cc1)C(Cl)Cl [CHLORAMPHENICOL]
MIC (Heyndrickxia coagulans): 0.41 µg/mL (≈ 1.27 µM)
MIC (Escherichia coli [11]): 0.05 µg/mL (≈ 0.155 µM)
MIC (Enterococcus faecalis): 0.05 µg/mL (≈ 0.155 µM)

COc1ccc(OC)c(/C=C/C(=O)Nc2sc3c(c2C#N)CCCC3)c1
IC50 at 2 days [12]: 260 µM
pIC50 (TGF-beta receptor type-1): 7.06
pIC50 (PC-3): 5.58
pIC50 (HepG2): 5.55
pIC50 (MCF7): 5.46

N#Cc1ccsc1/N=C/c1ccccc1
MIC (Trichophyton tonsurans [2]): 32 µg/mL (≈ 151 µM)
MIC [3]: 256 µg/mL (≈ 1210 µM)
MIC (Epidermophyton floccosum [10]): 512 µg/mL (≈ 2410 µM)
MIC (Epidermophyton floccosum [4]): 16 µg/mL (≈ 75.4 µM)
MIC (Trichophyton tonsurans [6]): 32 µg/mL (≈ 151 µM)

COC(=O)c1c(NC(=O)Cn2cc(CNC34CC5CC(CC(C5)C3)C4)nn2)sc2c1CCCC2
pIC50 [13]: 5.80
pIC50 [14]: 5.80

N#Cc1ccsc1/N=C/c1ccccc1[N+](=O)[O-]
MIC (Epidermophyton floccosum [4]): 32 µg/mL (≈ 124 µM)
MIC (Candida parapsilosis): 128 µg/mL (≈ 498 µM)

N#Cc1ccsc1/N=C/c1c(Cl)cccc1Cl
MIC (Trichophyton tonsurans [2]): 64 µg/mL (≈ 228 µM)
MIC (Trichophyton tonsurans [6]): 256 µg/mL (≈ 910 µM)
MIC (Trichophyton rubrum): 32 µg/mL (≈ 114 µM)

COc1ccc(OC)c(/C=C/C(=O)Nc2sc3c(c2C#N)CCC3)c1
IC50 at 2 days [12]: 185 µM
pIC50 (TGF-beta receptor type-1): 7.05 and 7.06
pIC50 (PC-3): 5.87
pIC50 (HepG2): 5.57
pIC50 (MCF7): 5.49

CCOC(=O)C1=C(Nc2ccccc2)S/C(=C\c2ccc(F)c(C#N)c2)C1=O
inhibition at 10 µM (JAR): 9.9%

N#Cc1c(NC(=O)c2cc(O)c(O)c(O)c2)sc2c1CCCCC2
MIC (Staphylococcus coagulans): 0.43 µM (≈ 0.148 µg/mL)
MIC (Heyndrickxia coagulans): 0.15 µg/mL (≈ 0.436 µM)
MIC (Enterococcus faecalis): 0.25 µg/mL (≈ 0.726 µM)

COC(=O)c1c(NC(=O)N[C@@H](C(=O)N[C@@H]2C(=O)N3C(C(=O)O)=C(C)CS[C@H]23)c2ccccc2)sc2c1CCCCCC2
MIC (Staphylococcus aureus [15]): 0.46 µg/mL (≈ 0.751 µM)
MIC [16]: 0.782 µg/mL (≈ 1.28 µM)
MIC (Bacillus subtilis [17]): 2.35 µg/mL (≈ 3.84 µM)
EC5 [18]: 0.782 µM
pEC50 (Staphylococcus aureus [19]): 6.74
pEC50 (Bacillus subtilis [20]): 6.59
pEC50 (Staphylococcus aureus [21]): 6.74
MIC (Escherichia coli [22]): > 10 µg/mL
MIC (Pseudomonas aeruginosa): > 10 µg/mL

N#Cc1c(NC(=O)/C=C/c2ccc(O)cc2)sc2c1CCC2
IC50 at 2 days [12]: 236 µM
pIC50 (TGF-beta receptor type-1): 7.06
pIC50 (PC-3): 5.47
pIC50 (HepG2): 5.45
pIC50 (MCF7): 5.31

N#Cc1ccsc1/N=C/c1ccc([N+](=O)[O-])cc1
MIC (Trichophyton tonsurans [2]): 512 µg/mL (≈ 1990 µM)
MIC (Epidermophyton floccosum [10]): 512 µg/mL (≈ 1990 µM)
MIC (Epidermophyton floccosum [4]): 1020 µg/mL (≈ 3980 µM)
MIC (Candida parapsilosis): 1020 µg/mL (≈ 3980 µM)
MIC (Trichophyton rubrum): 64 µg/mL (≈ 249 µM)

COc1ccc2nc3cc(Cl)ccc3c(Nc3sc4c(c3C#N)CCCC4)c2c1
pEC50 (Leishmania amazonensis): 4.96
Kb (DNA): 1 10^4/M

— ChEMBL document CHEMBL5214926, “Recent contribution of medicinally active 2-aminothiophenes: A privileged scaffold for drug discovery” (Eur J Med Chem, 2022)
